In US10174016B2 (BAYER AKTIENGESELLSCHAFT, priority 2014, dated 2019) one finds IC50 data, which are given here for 26 compounds.

Where two headings read alike, the source gives them in different places.

The target in test [1] is human P2X2/3 receptor (Homo sapiens (Human), UniProt P56373+Q9UBL9). Briefly: Intracellular calcium measurement (FLIPR, Fluo-4) of antagonist activity at human P2X2/3 receptors. Conditions: human P2X2/3, FLIPR calcium assay, agonist α,β-Me-ATP; read-out: hP2X2/3 IC50. It is filed as cell-based. In a few lines:
(§1)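 Cells expressing human P2X3 or P2X2/3, loaded with Fluo-4, preincubated 30 min at 37° C. with compound (1% DMSO final), then challenged with α,β-Me-ATP at its EC80. Peak FLIPR fluorescence over 90 sec gave % response; IC50, maximal inhibition and Hill slope from triplicates.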
(Calcium flux is commonly read through the fluorescence of an indicator in the cells.)

The target in test [2] is human P2X3 receptor (Homo sapiens (Human), UniProt P56373). Briefly: Intracellular calcium measurement (FLIPR, Fluo-4) of antagonist activity at human P2X3 receptors. It is filed as cell-based. The conditions noted are these: read-out: hP2X3 IC50. In a few lines:
as §1

[3] abbreviates: human P2X3, FLIPR calcium assay, agonist α,β-Me-ATP.

Sequence of human P2X2/3 receptor (P56373 whole entry): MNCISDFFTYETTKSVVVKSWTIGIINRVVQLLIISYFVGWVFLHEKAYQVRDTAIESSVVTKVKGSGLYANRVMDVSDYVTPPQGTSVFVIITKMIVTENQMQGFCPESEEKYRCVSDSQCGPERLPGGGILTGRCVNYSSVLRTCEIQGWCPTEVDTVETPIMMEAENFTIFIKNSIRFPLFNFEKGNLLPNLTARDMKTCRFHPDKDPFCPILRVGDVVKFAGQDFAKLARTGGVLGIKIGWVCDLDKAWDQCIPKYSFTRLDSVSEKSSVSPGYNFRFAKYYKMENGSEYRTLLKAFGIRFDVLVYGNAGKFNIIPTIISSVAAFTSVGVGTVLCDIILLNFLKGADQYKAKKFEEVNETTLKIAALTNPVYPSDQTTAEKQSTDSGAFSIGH
Sequence of human P2X2/3 receptor (Q9UBL9 whole entry): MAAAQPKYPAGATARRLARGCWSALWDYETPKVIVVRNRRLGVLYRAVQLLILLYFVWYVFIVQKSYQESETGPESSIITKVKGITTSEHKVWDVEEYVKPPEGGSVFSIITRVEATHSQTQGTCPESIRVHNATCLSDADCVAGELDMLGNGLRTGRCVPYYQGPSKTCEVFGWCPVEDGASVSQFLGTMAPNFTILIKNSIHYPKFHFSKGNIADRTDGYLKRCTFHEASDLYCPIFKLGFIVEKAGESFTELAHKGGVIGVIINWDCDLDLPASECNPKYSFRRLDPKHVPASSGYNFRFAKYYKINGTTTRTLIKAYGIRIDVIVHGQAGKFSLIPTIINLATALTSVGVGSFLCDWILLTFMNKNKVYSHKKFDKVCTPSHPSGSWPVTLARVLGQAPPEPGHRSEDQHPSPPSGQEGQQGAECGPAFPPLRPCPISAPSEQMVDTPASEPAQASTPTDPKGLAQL
Sequence of human P2X3 receptor (P56373 whole entry): as the sequence (P56373 whole entry) above

Turning to `Cc1cnc(-c2cc(OC3CC4CC3CN4C)cc(C(=O)N[C@H](C)c3cnc(C(F)(F)F)nc3)c2)s1` (stereo partly drawn) [Example 209, 3-{[2-methyl-2-azabicyclo[2.2.1]hept-5-yl]oxy}-5-(5-methyl-1,3-thiazol-2-yl)-N-{(1R)-1-[2-(trifluoromethyl)pyrimidin-5-yl]ethyl}benzamide], the IC50 in test [1] was found to be 1470 nM; in test [2] (setting [3]), 30 nM.

As for `Cc1cnc(-c2cc(OC[C@H]3CNCCO3)cc(C(=O)N[C@H](C)c3cnc(C(F)(F)F)nc3)c2)s1` [Example 347, 3-(5-Methyl-1,3-thiazol-2-yl)-5-[(2R)-morpholin-2-ylmethoxy]-N-{(1R)-1-[2-(trifluoromethyl)pyrimidin-5-yl]ethyl}benzamide], the figures for the IC50 in test [1] and in test [2] (setting [3]) were 1520 nM and 9 nM, respectively.

Take `Cc1cnc([C@@H](C)NC(=O)c2cc(OC[C@@H]3CCCO3)cc(-c3ncc(C)s3)c2)cn1` [Example 57, N-[(1R)-1-(5-Methylpyrazin-2-yl)ethyl]-3-(5-methyl-1,3-thiazol-2-yl)-5-[(2S)-tetrahydrofuran-2-ylmethoxy]benzamide]: the IC50 in test [1] was 2840 nM; in test [2] (setting [3]) it was 25 nM.

For `Cc1ccc([C@@H](C)NC(=O)c2cc(O[C@@H]3CCOC3)cc(-c3ncc(C)s3)c2)nn1` [Example 18, N-[(1R)-1-(6-methylpyridazin-3-yl)ethyl]-3-(5-methyl-1,3-thiazol-2-yl)-5-[(3R)-tetrahydrofuran-3-yloxy]benzamide], the IC50 was determined as 427 nM in test [1] and 34 nM in test [2] (setting [3]).

As for `Cc1cnc(-c2cc(OC[C@@]3(F)CCCNC3)cc(C(=O)N[C@H](C)c3cnc(C(F)(F)F)nc3)c2)s1` [Example 354], the IC50 in test [1] was found to be 1030 nM; in test [2] (setting [3]), 25 nM.

Turning to `Cc1ccc([C@@H](C)NC(=O)c2cc(OC3CCOCC3)cc(-c3ncc(C)s3)c2)cn1` [Example 91, N-[(1R)-1-(6-Methylpyridin-3-yl)ethyl]-3-(5-methyl-1,3-thiazol-2-yl)-5-(tetrahydro-2H-pyran-4-yloxy)benzamide], the IC50 in test [1] was determined as 133 nM; in test [2] (setting [3]), 19 nM.

In the case of `CC[C@@H](NC(=O)c1cc(OC2CCOCC2)cc(-c2ncc(C)s2)c1)c1cnc(C(F)(F)F)nc1` [Example 90, 3-(5-Methyl-1,3-thiazol-2-yl)-5-(tetrahydro-2H-pyran-4-yloxy)-N-{(1R)-1-[2-(trifluoromethyl)pyrimidin-5-yl]propyl}benzamide], the values for the IC50 in test [1] and in test [2] (setting [3]) were 710 nM and 111 nM, respectively.

On to `Cc1cnc(-c2cc(OC[C@@H]3CN(C)CCO3)cc(C(=O)NCc3cnc(C(F)(F)F)nc3)c2)s1` [Example 368, 3-{[(2S)-4-methylmorpholin-2-yl]methoxy}-5-(5-methyl-1,3-thiazol-2-yl)-N-{[2-(trifluoromethyl)pyrimidin-5-yl]methyl}benzamide], for which the values for the IC50 in test [1] and in test [2] (setting [3]) were 1090 nM and 84 nM, respectively.

Turning to `C#CCOc1cc(C(=O)N[C@@H](C)c2cnc(C(F)(F)F)nc2)cc(-c2ncc(C)s2)c1` [Example 144, 3-(5-Methyl-1,3-thiazol-2-yl)-5-(prop-2-yn-1-yloxy)-N-{(1S)-1-[2-(trifluoromethyl)pyrimidin-5-yl]ethyl}benzamide], the values for the IC50 in test [1] and in test [2] (setting [3]) were at least 10000 nM and 825 nM, respectively.

Take `Cc1ccc(CNC(=O)c2cc(OC3CCN(CC(F)(F)F)CC3)cc(-c3ncc(C)s3)c2)nn1` [Example 314, N-[(6-methylpyridazin-3-yl)methyl]-3-(5-methyl-1,3-thiazol-2-yl)-5-{[1-(2,2,2-trifluoroethyl)piperidin-4-yl]oxy}benzamide]: the IC50 is 192 nM in test [1] and 8 nM in test [2].

For `Cc1cnc(-c2cc(OC3CCN(CC(F)F)CC3)cc(C(=O)N[C@H](C)c3cnc(C(F)(F)F)nc3)c2)s1` [Example 304], the figures for the IC50 in test [1] and in test [2] were 27 nM and 7 nM, respectively.

For the compound `Cc1ccc([C@@H](C)NC(=O)c2cc(OC[C@@H]3CCCO3)cc(-c3ncc(C(C)C)s3)c2)nn1` [Example 288, N-[(1R)-1-(6-methylpyridazin-3-yl)ethyl]-3-[5-(propan-2-yl)-1,3-thiazol-2-yl]-5-[(2S)-tetrahydrofuran-2-ylmethoxy]benzamide], the IC50 came to 1310 nM in test [1] and 150 nM in test [2] (setting [3]).

As to `Cc1ccc([C@@H](C)NC(=O)c2cc(OC[C@@H]3CCOC3)cc(-c3ncc(C(C)C)s3)c2)nn1` [Example 264, N-[(1R)-1-(6-methylpyridazin-3-yl)ethyl]-3-[5-(propan-2-yl)-1,3-thiazol-2-yl]-5-[(3R)-tetrahydrofuran-3-ylmethoxy]benzamide], the IC50 came to 530 nM in test [1] and 81 nM in test [2] (setting [3]).

Turning to `Cc1cnc(-c2cc(OC[C@H]3CCOC3)cc(C(=O)N[C@H](C)c3ccc(C(F)(F)F)nn3)c2)s1` [Example 72, 3-(5-Methyl-1,3-thiazol-2-yl)-5-[(3S)-tetrahydrofuran-3-ylmethoxy]-N-[(1R)-1-[6-(trifluoromethyl)pyridazin-3-yl]ethyl]benzamide], the IC50 in test [1] stood at 330 nM; in test [2] (setting [3]), 11 nM.

Regarding `Cc1cnc(CNC(=O)c2cc(OC3CCOCC3)cc(-c3ncc(C)s3)c2)cn1` [Example 83, N-[(5-Methylpyrazin-2-yl)methyl]-3-(5-methyl-1,3-thiazol-2-yl)-5-(tetrahydro-2H-pyran-4-yloxy)benzamide], the IC50 in test [1] is 1160 nM; in test [2] (setting [3]), 125 nM.

For the compound `COC(=O)N1CCO[C@@H](COc2cc(C(=O)N[C@H](C)c3cnc(C(F)(F)F)nc3)cc(-c3ncc(C)s3)c2)C1` [Example 392, Methyl (2R)-2-{[3-(5-methyl-1,3-thiazol-2-yl)-5-({(1R)-1-[2-(trifluoromethyl)pyrimidin-5-yl]ethyl}carbamoyl)phenoxy]methyl}morpholine-4-carboxylate], the values for the IC50 in test [1] and in test [2] (setting [3]) were 411 nM and 11 nM, respectively.

For `Cc1cnc(-c2cc(O[C@@H]3CCOC3)cc(C(=O)NCc3cnc(C(F)(F)F)nc3)c2)s1` [Example 166, 3-(5-methyl-1,3-thiazol-2-yl)-5-[(3R)-tetrahydrofuran-3-yloxy]-N-{[2-(trifluoromethyl)pyrimidin-5-yl]methyl}benzamide], the IC50 in test [1] came to 461 nM; in test [2] (setting [3]) it was 40 nM.

Regarding `Cc1cnc(CNC(=O)c2cc(OC[C@@H]3CCOC3)cc(-c3ncc(C)s3)c2)cn1` [Example 76, N-[(5-Methylpyrazin-2-yl)methyl]-3-(5-methyl-1,3-thiazol-2-yl)-5-[(3R)-tetrahydrofuran-3-ylmethoxy]benzamide], the IC50 in test [1] was 5790 nM; in test [2] (setting [3]), 201 nM.

As for `Cc1ccc([C@@H](C)NC(=O)c2cc(O[C@H]3CCOC3)cc(-c3ncc(C(C)C)s3)c2)nn1` [Example 255, N-[(1R)-1-(6-methylpyridazin-3-yl)ethyl]-3-[5-(propan-2-yl)-1,3-thiazol-2-yl]-5-[(3S)-tetrahydrofuran-3-yloxy]benzamide], the values for the IC50 in test [1] and in test [2] (setting [3]) were 449 nM and 254 nM, respectively.

With `Cc1cnc(-c2cc(OC3CC4(CNC4)C3)cc(C(=O)N[C@H](C)c3cnc(C(F)(F)F)nc3)c2)s1` [Example 202, 3-(2-azaspiro[3.3]hept-6-yloxy)-5-(5-methyl-1,3-thiazol-2-yl)-N-{(1R)-1-[2-(trifluoromethyl)pyrimidin-5-yl]ethyl} benzamide], the IC50 in test [1] turned out to be 1710 nM; in test [2] (setting [3]) it was 42 nM.

For the compound `Cc1cnc(-c2cc(OC3CN(C(C)C)C3)cc(C(=O)N[C@H](C)c3cnc(C(F)(F)F)nc3)c2)s1` [Example 229, 3-(5-Methyl-1,3-thiazol-2-yl)-5-{[1-(propan-2-yl)azetidin-3-yl]oxy}-N-{(1R)-1-[2-(trifluoromethyl)pyrimidin-5-yl]ethyl}benzamide], the IC50 in test [1] is 2280 nM; in test [2] (setting [3]), 44 nM.

For `CC(C)c1cnc(-c2cc(OC[C@H]3CCOC3)cc(C(=O)N[C@H](C)c3ccc(C(F)(F)F)nn3)c2)s1` [Example 298, 3-[5-(propan-2-yl)-1,3-thiazol-2-yl]-5-[(3S)-tetrahydrofuran-3-ylmethoxy]-N-{(1R)-1-[6-(trifluoromethyl)pyridazin-3-yl]ethyl}benzamide], the IC50 in test [1] is 781 nM; in test [2] (setting [3]), 62 nM.

For the compound `Cc1ccc(CNC(=O)c2cc(OC3CCOCC3)cc(-c3ncc(C)s3)c2)nn1` [Example 82, N-[(6-Methylpyridazin-3-yl)methyl]-3-(5-methyl-1,3-thiazol-2-yl)-5-(tetrahydro-2H-pyran-4-yloxy)benzamide], the IC50 in test [1] came out at 380 nM; in test [2] (setting [3]), 28 nM.

For the compound `Cc1cnc(-c2cc(OC[C@@H]3COCC(=O)N3)cc(C(=O)N[C@H](C)c3cnc(C(F)(F)F)nc3)c2)s1` [Example 403, 3-(5-methyl-1,3-thiazol-2-yl)-5-{[(3S)-5-oxomorpholin-3-yl]methoxy}-N-{(1R)-1-[2-(trifluoromethyl)pyrimidin-5-yl]ethyl}benzamide], the IC50 in test [1] is 2110 nM; in test [2] it was 56 nM.

With `CCc1cnc(-c2cc(OC[C@H]3CCCO3)cc(C(=O)N[C@H](C)c3cnc(C(F)(F)F)nc3)c2)s1` [Example 269, 3-(5-ethyl-1,3-thiazol-2-yl)-5-[(2R)-tetrahydrofuran-2-ylmethoxy]-N-{(1R)-1-[2-(trifluoromethyl)pyrimidin-5-yl]ethyl}benzamide], the IC50 is 35 nM in test [1] and 2 nM in test [2] (setting [3]).

As for `Cc1ccc([C@@H](C)NC(=O)c2cc(OC3CCN(CC(F)(F)F)CC3)cc(-c3ncc(C)s3)c2)nn1` [Example 311, N-[(1R)-1-(6-methylpyridazin-3-yl)ethyl]-3-(5-methyl-1,3-thiazol-2-yl)-5-{[1-(2,2,2-trifluoroethyl)piperidin-4-yl]oxy}benzamide], the IC50 amounted to 35 nM in test [1] and 8 nM in test [2] (setting [3]).
